Earlier results, collected in patent US20110237925A1, “MICRONEEDLE ARRAY CHIP, DEVICE AND PATCH FOR TRANSDERMAL DRUG DELIVERY UTILIZING THE SAME, AND PREPARATION METHOD THEROF” (priority 2010, published 2011).

Conditions: solid silicon microneedle array prepared through MEMS technology

For `O=C(O)CN(CC(=O)O)Cc1cc2c(cc1O)Oc1cc(O)c(CN(CC(=O)O)CC(=O)O)cc1C21OC(=O)c2ccccc21` [calcein], the “increase of the transdermal permeability” value is given as “four orders of magnitude”.
